Assay results from patent US11648242B2, “Pharmaceutical composition comprising pimavanserin, process of preparation and use thereof” (Aurobindo Pharma Ltd., priority 2019, dated 2023).
Counter-ions that a name gives are not always drawn.

Experiments:
[1] = cited from earlier work
[2] = Particle size distribution (D90) of the API; assay type: physicochemical; details: native amorphous pimavanserin tartrate API
Bulk density of the API = assay type: physicochemical; details: native amorphous pimavanserin tartrate API

| Compound | Solubility in water [1] | Particle size distribution of API (D90) [2] | Bulk density (Bulk density of the API) [g/mL] |
| --- | --- | --- | --- |
| CC(C)COc1ccc(CNC(=O)N(Cc2ccc(F)cc2)C2CCN(C)CC2)cc1 [Pimavanserin tartrate, urea, N-[(4-fluorophenyl)methyl]-N-(1-methyl-4-piperidinyl)-N′-[[4-(2methylpropoxy)phenyl]methyl]-, (2R, 3R)-2,3-dihydroxybutanedioate (2:1)] | freely soluble | – | – |
| CC(C)COc1ccc(CNC(=O)N(Cc2ccc(F)cc2)C2CCN(C)CC2)cc1 [native amorphous pimavanserin tartrate] | – | about 100 μm | 0.374 |
